Patent US7196110B2, “N-substituted tricyclic 3-aminopyrazoles as inhibitors for the treatment of cell proliferative disorders” (Janssen Phamaceutica N.V., priority 2002, dated 2007)
Read-outs that look alike come from different tables or passages of the source.

Target: T1, PDGF-receptor beta enzyme comprising the tyrosine kinase domain (Homo sapiens, UniProt P09619)
T1 construct: from amino acid 545 to 1106 of GenBank Access NO: AAA36427
Assay: Inhibition of PDGF-receptor kinase activity (cell-free, PLC1 peptide, 33P Flashplate)
Type: biochemical
Conditions: for inhibition at 10 µM / Percent Inhibition @ 10 uM: compound at 10 uM; for inhibition at 10 µM: read-out: Percent Inhibition @ 10 uM
Description: PDGF-R kinase activity was assayed by its ability to phosphorylate one of its target proteins, PLCγ, in a cell-free system, in particular, a PLC1 peptide comprising the tyrosine residue where the phosphorylation occurs was used for the assay.
10× Kinase Buffer (500 mM Tris-HCl pH=8, 100 mM MgCl2, 1 mM Na3VO4); 10 mM DTT (final concentration at 1 mM in assay); 10 mM ATP (final concentration at 5 μM in assay); ^33P-γ-ATP (Cat. No.: NEG/602H. 2000-3000 Ci/mmol) purchased from NEN; Purified, soluble, recombinant PDGF-receptor beta enzyme comprising the tyrosine kinase domain (from amino acid 545 to 1106 of GenBank Access NO: AAA36427 ) at 0.4 mg/mL; Enzyme Dilution Buffer (50 mM Tris-HCl pH=8.0, 0.1% BSA); Wash/Stop Buffer (PBS +100 mM EDTA); NEN Streptavidin Flashplates (Cat. No.: SMP-103) which binds to the biotinylated PLC1 peptide but not the PDGF-R enzyme; PLC1 peptide (Biotin-[…]-Amide) at 1 mM in 50 mM Tris-HCL with pH of 8.0.
Reagents were first mixed according the following regimen:
The above reaction mixture was dispensed into each well of a Flashplate at 70 μl/well. To test the effect of a compound on PDGF-R kinase activity, the test compound either in a fixed concentration or in serially diluted concentrations in 100% DMSO was added to appropriate wells at 1 μl/well.
Enzyme PDGF-R was diluted in Enzyme dilution buffer as following:
The kinase reaction was initiated by adding 30 μl of diluted PDGF-R enzyme solution to each well on the Flashplate containing hot ATP and PLC1, except wells of column 12 rows E through H, which were used to calculate the plate background. The Flashplate was swirled to mix and was incubated at 30° C. for 60 minutes. Then, the reaction mixture was discarded and the Flashplate was washed 3 times each with 200 μl Wash/Stop Buffer. Subsequently, each well on the Flashplate was filled with 200 μl of Wash/Stop buffer. The amount of ^33P retained in each well was measured using a Packard TopCount after the plate was sealed with a transparent plate sealer.
The percentage of inhibition of the test compound on PDGF-R kinase activity is defined as […].
In order to test the potency of inhibition of present compounds, an IC50 for an individual compound was measured using the above procedure. As used herein, the IC50 for PDGF-R kinase activity refers to the concentration of an inhibitor at which the activity of the PDGF-R kinase is reduced by one-half as compared with reactions containing no inhibitor.

[1] = PDGF-R kinase activity, read-out: IC50
[2] = read-out: IC50 (μM) on PDGF-R kinase activity

T1 sequence (P09619 545-1106): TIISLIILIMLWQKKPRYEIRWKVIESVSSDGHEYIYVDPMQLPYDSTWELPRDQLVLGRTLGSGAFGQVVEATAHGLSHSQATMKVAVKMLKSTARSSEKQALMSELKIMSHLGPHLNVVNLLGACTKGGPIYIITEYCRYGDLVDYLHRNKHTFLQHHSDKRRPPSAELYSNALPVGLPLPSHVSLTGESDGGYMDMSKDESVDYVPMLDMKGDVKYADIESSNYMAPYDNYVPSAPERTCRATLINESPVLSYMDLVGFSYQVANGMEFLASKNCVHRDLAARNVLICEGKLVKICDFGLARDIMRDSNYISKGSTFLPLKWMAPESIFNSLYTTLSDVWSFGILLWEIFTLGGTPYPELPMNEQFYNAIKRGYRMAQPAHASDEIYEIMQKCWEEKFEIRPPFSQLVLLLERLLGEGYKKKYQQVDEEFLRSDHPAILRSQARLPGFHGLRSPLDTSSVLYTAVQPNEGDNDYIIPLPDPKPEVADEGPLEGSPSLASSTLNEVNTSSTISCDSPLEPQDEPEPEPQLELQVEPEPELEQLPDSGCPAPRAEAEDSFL

What does the source list for `COc1cccc([C@H](C)Nc2[nH]nc3c2Cc2cc(OC)c(OC)cc2-3)c1` (single isomer, unassigned) [Compound 324, (6,7-Dimethoxy-2,4-dihydro-indeno[1,2-c]pyrazol-3-yl)-[1-(3-methoxy-phenyl)-ethyl]-amine]?
inhibition at 10 µM (PDGF-R kinase activity): 74.5%; IC50 [1]: 1.32 µM

How did the “Percent Inhibition @ 10 uM” value (PDGF-R kinase activity) turn out when `CCC1c2cc(OC)c(OC)cc2-c2[nH]nc(Nc3cccc(Br)c3)c21` (single isomer, unassigned) [Compound 482, (3-Bromo-phenyl)-(4-ethyl-6,7-dimethoxy-1,4-dihydro-indeno[1,2-c]pyrazol-3-yl)-amine] was run?
The value was 100%.

And the IC50 [1]?
Its IC50 is 0.0386 µM.

`CCC1c2cc(OC)c(OC)cc2-c2[nH]nc(Nc3cccc(Br)c3)c21` (single isomer, unassigned) [Compound 483, (3-Bromo-phenyl)-(4-ethyl-6,7-dimethoxy-1,4-dihydro-indeno[1,2-c]pyrazol-3-yl)-amine] was tested. Which “Percent Inhibition @ 10 uM” value (PDGF-R kinase activity) did it give?
Its value is 78.5%.

What about the IC50 [1] of the same molecule?
The IC50 was 4.97 µM.

`CCOc1cccc(Nc2[nH]nc3c2C(C)c2cc(OC)c(OC)cc2-3)c1` (single isomer, unassigned) [Compound 554, (6,7-Dimethoxy-4-methyl-2,4-dihydro-indeno[1,2-c]pyrazol-3-yl)-(3-ethoxy-phenyl)-amine] was tested. Which “Percent Inhibition @ 10 uM” value (PDGF-R kinase activity) did it give?
Its value is 102%.

And the IC50 [1]?
Its IC50 is 0.0208 µM.

For `CCC1c2cc(OC)c(OC)cc2-c2n[nH]c(Nc3cccc(Br)c3)c21` (single isomer, unassigned) [Compound 555, *R-(3-Bromo-phenyl)-(6,7-dimethoxy-4-ethyl-2,4-dihydro-indeno[1,2-c]pyrazol-3-yl)-amine], which inhibition at 10 µM (PDGF-R kinase activity) is on record?
Its inhibition at 10 µM is 97.5%.

And the IC50 [1]?
The IC50 was 0.0209 µM.

`CCOc1cccc(Nc2[nH]nc3c2C(CC)c2cc(OC)c(OC)cc2-3)c1` (single isomer, unassigned) [Compound 556, (3-Ethoxy-phenyl)-(4-ethyl-6,7-dimethoxy-2,4-dihydro-indeno[1,2-c]pyrazol-3-yl)-amine] was tested. Which “Percent Inhibition @ 10 uM” value (PDGF-R kinase activity) did it give?
Its value is 98%.

What about the IC50 [1] of the same molecule?
The IC50 was 0.0104 µM.

Which inhibition at 10 µM (PDGF-R kinase activity) does the source give for `COc1cc2c(cc1OC)C(C)c1c-2n[nH]c1Nc1cccnc1Cl` (single isomer, unassigned) [Compound 559, (2-Chloro-pyridin-3-yl)-(6,7-dimethoxy-4-methyl-2,4-dihydro-indeno[1,2-c]pyrazol-3-yl)-amine] here?
The inhibition at 10 µM was 102%.

And the IC50 [1]?
The IC50 was 0.0371 µM.

With `COc1cc2c(cc1OC)C(C)c1c-2n[nH]c1Nc1cccc(Br)c1` (single isomer, unassigned) [Compound 568, *S-(3-Bromo-phenyl)-(6,7-dimethoxy-4-methyl-2,4-dihydro-indeno[1,2-c]pyrazol-3-yl)-amine] as the molecule, how does the inhibition at 10 µM (PDGF-R kinase activity) read?
Its inhibition at 10 µM is 78%.

What about the IC50 [1] of the same molecule?
Its IC50 is 0.79 µM.

For `CCOc1cccc(Nc2[nH]nc3c2C(C)c2cc(OC)c(OC)cc2-3)c1` (single isomer, unassigned) [Compound 569, (6,7-Dimethoxy-4-methyl-2,4-dihydro-indeno[1,2-c]pyrazol-3-yl)-(3-ethoxy-phenyl)-amine], which “Percent Inhibition @ 10 uM” value (PDGF-R kinase activity) is on record?
Its value is 64%.

And the IC50 [1]?
The IC50 was 5.1 µM.

With `CCC1c2cc(OC)c(OC)cc2-c2n[nH]c(Nc3cccc(Br)c3)c21` (single isomer, unassigned) [Compound 570, *S-(3-Bromo-phenyl)-(6,7-dimethoxy-4-ethyl-2,4-dihydro-indeno[1,2-c]pyrazol-3-yl)-amine] as the molecule, how does the “Percent Inhibition @ 10 uM” value (PDGF-R kinase activity) read?
The value was 77.5%.

And the IC50 [2]?
Its IC50 is 2.05 µM.

With `CCOc1cccc(Nc2[nH]nc3c2C(CC)c2cc(OC)c(OC)cc2-3)c1` (single isomer, unassigned) [Compound 571, (3-Ethoxy-phenyl)-(4-ethyl-6,7-dimethoxy-2,4-dihydro-indeno[1,2-c]pyrazol-3-yl)-amine] as the molecule, how does the “Percent Inhibition @ 10 uM” value (PDGF-R kinase activity) read?
The value was 66%.

And the IC50 [2]?
Its IC50 is 3.89 µM.

Which results are given for `CCC1c2cc(OC)c(OC)cc2-c2n[nH]c(NCc3c(Cl)cccc3Cl)c21` (single isomer, unassigned) [Compound 585, (2,6-Dichloro-benzyl)-(4-ethyl-6,7-dimethoxy-2,4-dihydro-indeno[1,2-c]pyrazol-3-yl)-amine]?
inhibition at 10 µM (PDGF-R kinase activity): 102%; IC50 [2]: 0.429 µM

Which results are given for `COc1cc2c(cc1OC)C(C)c1c-2n[nH]c1NCc1c(Cl)cccc1Cl` (single isomer, unassigned) [Compound 586, (2,6-Dichloro-benzyl)-(6,7-dimethoxy-4-methyl-2,4-dihydro-indeno[1,2-c]pyrazol-3-yl)-amine]?
inhibition at 10 µM (PDGF-R kinase activity): 100%; IC50 [2]: 0.0278 µM

What does the source list for `CCC1c2cc(OC)c(OC)cc2-c2n[nH]c(Nc3cccnc3Cl)c21` (single isomer, unassigned) [Compound 607, (2-Chloro-pyridin-3-yl)-(4-ethyl-6,7-dimethoxy-2,4-dihydro-indeno[1,2-c]pyrazol-3-yl)-amine]?
inhibition at 10 µM (PDGF-R kinase activity): 78%; IC50 [2]: 0.547 µM

With `c1ccc(Nc2[nH]nc3c2Cc2ccccc2-3)cc1` [Compound 1] as the molecule, how does the inhibition at 10 µM (PDGF-R kinase activity) read?
The inhibition at 10 µM was 91%.

What about the IC50 [1] of the same molecule?
Its IC50 is 0.317 µM.

What does the source list for `Clc1ccc(Nc2[nH]nc3c2Cc2ccccc2-3)cc1` [Compound 3, (4-Chloro-phenyl)-(2,4-dihydro-indeno[1,2-c]pyrazol-3-yl)-amine]?
inhibition at 10 µM (PDGF-R kinase activity): 90%; IC50 [1]: 0.157 µM

Which inhibition at 10 µM (PDGF-R kinase activity) does the source give for `COc1cc2c(cc1OC)-c1n[nH]c(Nc3ccc(Cl)cc3)c1C2` [Compound 5, (4-Chloro-phenyl)-(6,7-dimethoxy-2,4-dihydro-indeno[1,2-c]pyrazol-3-yl)-amine] here?
The inhibition at 10 µM was 91%.

With `COc1ccc(Nc2[nH]nc3c2Cc2cc(OC)c(OC)cc2-3)cc1` [Compound 6, (6,7-Dimethoxy-2,4-dihydro-indeno[1,2-c]pyrazol-3-yl)-(4-methoxy-phenyl)-amine] as the molecule, how does the inhibition at 10 µM (PDGF-R kinase activity) read?
The inhibition at 10 µM was 75%.

What about the IC50 [1] of the same molecule?
Its IC50 is 0.131 µM.

What does the source list for `COc1ccc2c(c1)Cc1c-2n[nH]c1Nc1ccccc1` [Compound 7, (6-Methoxy-2,4-dihydro-indeno[1,2-c]pyrazol-3-yl)-phenyl-amine]?
inhibition at 10 µM (PDGF-R kinase activity): 92%; IC50 [1]: 0.217 µM

For `COc1cc2c(cc1OC)-c1n[nH]c(Nc3ccccc3Cl)c1C2` [Compound 9, (2-Chloro-phenyl)-(6,7-dimethoxy-2,4-dihydro-indeno[1,2-c]pyrazol-3-yl)-amine], which inhibition at 10 µM (PDGF-R kinase activity) is on record?
Its inhibition at 10 µM is 89%.

With `CCOC(=O)c1ccc(Nc2[nH]nc3c2Cc2cc(OC)c(OC)cc2-3)cc1` [Compound 10, 4-(6,7-Dimethoxy-2,4-dihydro-indeno[1,2-c]pyrazol-3-ylamino)-benzoic acid ethyl ester] as the molecule, how does the inhibition at 10 µM (PDGF-R kinase activity) read?
The inhibition at 10 µM was 68%.

And the IC50 [1]?
Its IC50 is 2.07 µM.

How did the inhibition at 10 µM (PDGF-R kinase activity) turn out when `COc1cc2c(cc1OC)-c1n[nH]c(Nc3ccccc3OC(F)(F)F)c1C2` [Compound 15, (6,7-Dimethoxy-2,4-dihydro-indeno[1,2-c]pyrazol-3-yl)-(2-trifluoromethoxy-phenyl)-amine] was run?
Its inhibition at 10 µM is 79%.

And the IC50 [1]?
Its IC50 is 1.92 µM.

Which results are given for `COc1cc2c(cc1OC)-c1n[nH]c(Nc3ccc(OC(F)(F)F)cc3)c1C2` [Compound 16, (6,7-Dimethoxy-2,4-dihydro-indeno[1,2-c]pyrazol-3-yl)-(4-trifluoromethoxy-phenyl)-amine]?
inhibition at 10 µM (PDGF-R kinase activity): 79%; IC50 [1]: 4 µM

Which results are given for `COc1cc2c(cc1OC)-c1n[nH]c(Nc3ccc(Cl)cc3Cl)c1C2` [Compound 17, (2,4-Dichloro-phenyl)-(6,7-dimethoxy-2,4-dihydro-indeno[1,2-c]pyrazol-3-yl)-amine]?
inhibition at 10 µM (PDGF-R kinase activity): 79%; IC50 [1]: 3.54 µM

Which inhibition at 10 µM (PDGF-R kinase activity) does the source give for `COc1cc2c(cc1OC)-c1n[nH]c(Nc3ccc(Cl)c(Cl)c3)c1C2` [Compound 18, (3,4-Dichloro-phenyl)-(6,7-dimethoxy-2,4-dihydro-indeno[1,2-c]pyrazol-3-yl)-amine] here?
Its inhibition at 10 µM is 65%.

And the IC50 [1]?
Its IC50 is 0.23 µM.

What does the source list for `COc1cc2c(cc1OC)-c1n[nH]c(Nc3cc(Cl)cc(Cl)c3)c1C2` [Compound 19, (3,5-Dichloro-phenyl)-(6,7-dimethoxy-2,4-dihydro-indeno[1,2-c]pyrazol-3-yl)-amine]?
inhibition at 10 µM (PDGF-R kinase activity): 91%; IC50 [1]: 0.174 µM

For `COc1cc2c(cc1OC)-c1n[nH]c(Nc3cccc(Cl)c3Cl)c1C2` [Compound 20, (2,3-Dichloro-phenyl)-(6,7-dimethoxy-2,4-dihydro-indeno[1,2-c]pyrazol-3-yl)-amine], which inhibition at 10 µM (PDGF-R kinase activity) is on record?
Its inhibition at 10 µM is 77%.

And the IC50 [1]?
The IC50 was 1.1 µM.

What does the source list for `Clc1ccc2c(c1)Cc1c-2n[nH]c1Nc1ccccc1` [Compound 21, (6-Chloro-2,4-dihydro-indeno[1,2-c]pyrazol-3-yl)-phenyl-amine]?
inhibition at 10 µM (PDGF-R kinase activity): 103%; IC50 [1]: 0.121 µM
